Common to all, as to format: cell-based, human
Assay [1] has as its system CD4 T cells. As to the kind of experiment: MCM-CD4 T cell proliferation and surface marker study. How it is done: For MCM-CD4 T cell proliferation study, CD3 & CD28-stimulated, CFSE-labeled CD4 T cells were cultured with 50% MCM. T cell proliferation was measured on day 11 as described above. Culture supernatants of the MCM-CD4 T cell co-culture were collected for subsequent cytokine analysis. MCM-CD4 T cell surface marker evaluation was performed as described above.
To determine whether soluble factors secreted from β-glucan-treated M2 macrophages are required, measurements were carried out of CD4 T cell proliferation co-cultured with β-glucan-treated M2 macrophages MCM (50% of volume) and surface activation marker modulation on T cells incubated with the MCM were observed. FIG. 9 is representative of 2 different experiments. […] In addition, the CD4 T cells cultured in vehicle- and β-glucan-treated M2 macrophage MCM were evaluated for modulation of co-stimulatory or co-inhibitory molecules (CD80, CD28, CTLA-4, 4-1BB and PD-1).
To test this, M2 macrophages were prepared as described above with a few modifications. The whole blood of a low binder was spun down to remove the plasma and then the cells were reconstituted with serum obtained from a high binder. The reconstituted blood was treated with vehicle or β-glucan (25 μg/mL) for 2 hours at 37° C. The monocytes were evaluated for binding by using anti-β-glucan specific monoclonal antibody and subsequent flow cytometry.

Assay [2] relates to CD4 T cells. As to the kind of experiment: Mac-CD4 T co-culture surface marker modulation on T cells. The procedure: For evaluation of Mac-CD4 T cell surface marker modulation, M2 macrophages were co-cultured with T cells as described above and cells were harvested on day 8, day 9 and day 10 to perform surface receptor staining on both M2 macrophages and T cells.
Changes in surface marker expression on both macrophages and CD3 & CD28-stimulated T cells were also measured. Vehicle- and β-glucan-treated M2 macrophages and CD T cells from the co-cultures were evaluated by flow cytometry for the modulation of co-stimulatory or co-inhibitory molecules. FIG. 8C and Table 9 are representative results from 2 different experiments.

Another assay relates to CD4 and CD8 T cells. As to the kind of experiment: Allogeneic mixed lymphocyte reaction (allo-MLR) with mMoDC.
Setting [3] is: T cells co-cultured with β-glucan-treated M2 macrophages relative to vehicle-treated.

In the case of “β(1,6)-[poly-(1,3)-D-glucopyranosyl]-poly-β(1,3)-D-glucopyranose [β-glucan]”, the “T cell markers (CD80, CD28, CTLA-4, 4-1BB and PD-1)” value in the assay with CD4 T cells [1] (CD4 T cells cultured in β-glucan-treated M2 macrophage MCM (data not shown)) was “no change”. The “CD4 T cell proliferation” value in the assay with CD4 T cells [1] (MCM of M2 macrophages of a low binder crossed-over with high binder's serum, 25 μg/mL) is listed as “significantly higher ability to enhance”. Also, the “CD4 T cell proliferation” value with CD4 T cells [1] (β-glucan-treated M2 macrophage MCM (50% of volume) vs vehicle-treated MCM) is “significantly higher ability to enhance”. In addition, in the assay with CD4 T cells [2] (setting [3]), the “Change in MFI on T cells: 4-1BB” value is given as “No change”, the “Change in MFI on T cells: CD28” value is on record as “No change”, the “Change in MFI on T cells: CD40L” value is recorded as “No change” and the “Change in MFI on T cells: CTLA-4” value is recorded as “No change”. Also, the “Change in MFI on T cells: PD1 (CD279)” value in the assay with CD4 T cells [2] (T cells co-cultured with β-glucan-treated M2 macrophages relative to vehicle-treated (day 9)) is on record as “Increase”. Also, in the assay on CD4 and CD8 T cells (β-glucan-treated mMoDC from high binders), the “immunogenicity in allo-MLR (CD4 and CD8 T cell expansion)” value is given as “increased immunogenicity”. The IFN-γ production result in the assay on CD4 and CD8 T cells (β-glucan-treated mMoDC from high binders vs low binders and vehicle-treated mMoDCs) is on record as “able to modulate IFN-γ production”.

These data come from patent US10111901B2, “Beta-glucan in combination with anti-cancer agents affecting the tumor microenvironment” (Biothera, Inc., priority 2014, dated 2018).
